Experimental data published in patent US8227431B2, “Nucleoside derivatives” (Hetero Drugs Limited, priority 2008, dated 2012).

Tests used:
[1] = Cell viability assay (MTT); format: cell-based; conditions: human, Supt-1 cells, Cell line Supt-1, about 14 hours incubation, read-out: Cytotoxicity concentration (CC50)
Protocol: Reduction of 3-(4,5-dimethylthiozol-2-yl)-2,5-diphenyltetrazolium bromide (MTT, sigma) is chosen as an optimal mend point of cell viability measurement (Mosmann, 1983; Cole, 1986; alley et al., 1988). Cells (0.2×10^6 cells per well) were seeded in 96-well plates. Increasing concentrations of compound were added to the cells and incubated at 37° C. for about 14 hours in a CO2 Incubator with 5% CO2. The media was replaced with a fresh growth medium along with 20 μL of 5 mg/ml 3-(4,5-dimethylthiazol-2-yl)-2,5-diphenyltetrazolium bromide (MTT, Sigma). After incubation for about 4 hours in a humidified atmosphere, the media was removed and 200 μL of 0.1N acidic isopropyl alcohol was added to the wells to dissolve the MTT-formazan crystals. The absorbance was recorded at 570 nm, immediately after the development of purple colour. Each experiment was conducted in triplicate and the data are represented as average, with standard deviation. Percent viability of the cells was computed with reference to the absorbance of reduced MTT in the experiments conducted in absence of any compound. The above described examples were tested in the two biological assays as described above and some compounds were found following results as shown in table 2. Cell line Supt-1; Virus: HIV-1-93IN101

HIV-1-93IN101 = assay: P24 assay (viral p24 ELISA); format: cell-based; conditions: Cell line Supt-1, Virus HIV-1-93IN101; for IC50: Human immunodeficiency virus 1, SUP-T1, p24 ELISA about 72 hours post infection, read-out: Inhibitory concentration 50 (IC50)
Protocol: Viral p24 was measured after about 72 hours of post infection in presence of drugs using ABL p24 ELISA kit. 0.5 millions cells/well were taken into the 24 well plates and added increasing concentrations of drugs. 1 ng/ml of HIV-1 virus was added to each well and incubated for overnight at 37° C. (37° C. and 5% CO2). After about 16 hours incubation media was changed and added fresh media and cultured for about 72 hours. P24 was quantified at 4th day of post-infection using ABL kit according to manufacturer's instructions. The above described examples were tested in the two biological assays as described above and some compounds were found following results as shown in table 2. Cell line Supt-1; Virus: HIV-1-93IN101

IC50 (HIV-1-93IN101) [µM]	SMILES	CC50 [1] [µM]	Therapeutic Index (TI): CC50/IC50 (HIV-1-93IN101)
> 1000	C[C@]1(F)C(n2cnc3c(N)ncnc32)O[C@H](CO)[C@]1(C)O (stereo partly drawn) [Example 2A, (2R,3S,4R)-5-(6-amino-9H-purin-9-yl)-4-fluoro-tetrahydro-2-(hydroxymethyl)-3,4-dimethylfuran-3-ol]	> 1000	>1
300	CC1(O)[C@@H](CO)OC(n2cnc3c(NC4CC4)ncnc32)[C@]1(C)F (stereo partly drawn) [Example 16, (2R,4R)-5-(6-(cyclopropylamino)-9H-purin-9yl)-4-fluoro-tetrahydro-2-(hydroxymethyl)-3,4-dimethylfuran-3-ol]	424	1.4
> 1000	C[C@]1(F)[C@H](n2ccc(=O)[nH]c2=O)O[C@H](CO)[C@@]1(C)O [Example 22, 1-((2R,4R)-3-fluoro-tetrahydro-4-hydroxy-5-(hydroxymethyl)-3,4-dimethylfuran-2-yl)pyrimidine-2,4(1H,3H)-dione]	> 1000	>1
> 1000	C[C@]1(F)[C@H](n2ccc(N)nc2=O)O[C@H](CO)[C@@]1(C)O [Example 23, 4-amino1-((2R,4R)-3-fluoro-tetrahydro-4-hydroxy-5-(hydroxymethyl)-3,4-dimethylfuran-2-yl)pyrimidin-2(1H)-one]	> 1000	>1
